Read-outs that look alike come from different tables or passages of the source. *1 amine or outer side, *2 acyl side, *3 side chain or, on linkers, in order; H or OH if unused. Where a SMILES comes first, the peptide text is derived from it. Bridges are numbered along the chain shown (N, C = ends). [ ]: non-standard residue; d: D form. The star is where a group is joined. X1 = N=c1ccc2c(-c3ccccc3C(=O)*)c3ccc(N)c(S(=O)(=O)O)c3oc-2c1S(=O)(=O)O; NMeGABA = CN(CCCC(=O)[*:2])[*:1]

In assay [1] the target is T1, human Kv1.2 channel, mKate2-Kv1.2(S371T) (K-Kv1.2) (Homo sapiens, UniProt P16389, S371T).
T1 construct: expressed in transfected cells; host or cells: mouse neuroblastoma Neuro2a cells, transient transfection with pmKate2-KCNA2m1
As to the kind of experiment: Binding of fluorescent ligands to K-Kv1.2 on living Neuro2a cells (confocal microscopy, Rav titration). Conditions: concentration dependence of binding. As to the method: (§1) Cellular organelles were stained as described earlier. To analyze the binding of Kv1.2 with fluorescent ligands, A-HgTx (0.06–2 nM) or HgTx-G (0.06–0.5 nM) was added to cells in a complete medium for 90–120 min. To analyze competitive binding, HgTx-G (0.5 nM) was added to cells together with the studied peptide (0.1–0.8 nM HgTx1; 0.05–0.8 nM MgTx; 5–20 nM ChTx; 50–400 nM AgTx2; 0.05–0.2 nM Ce1; 0.2–5 nM Ce4) in a complete medium for 90–120 min.
(§2) Microscopy was carried out using an SP2 confocal microscope with an HCX PL APO 63×/1.2 objective (Leica Microsystems GmbH, Wetzlar, Germany). The size of the confocal diaphragm corresponded to 1 Airy disk. Typical voxel size was 0.06 × 0.06 × 0.9 µm except for serial ligand binding experiments, where its size was 0.23 × 0.23 × 0.9 µm. […]
(§3) Quantitative analysis of the interaction of fluorescent ligands with Kv1.2 was carried out using Image J software (version 1.48, National Institute of Health, Bethesda, MD, USA) as described earlier. This analysis was based on calculating the ratio of the fluorescent intensities of the bound ligand to the channel (Ri) in each selected region of interest on the plasma membrane for the confocal images of 20–25 measured cells, followed by calculating the average value (Rav) and standard deviation. […]

Assay [2] addresses T2, human Kv1.2 channel, mKate2-Kv1.2(S371T, N469L) (K-Kv1.2m2) (Homo sapiens, UniProt P16389, N469L/S371T).
T2 construct: expressed in transfected cells; host or cells: mouse neuroblastoma Neuro2a cells, transient transfection with pmKate2-KCNA2m1m2
As to the kind of experiment: Binding of fluorescent ligand to K-Kv1.2m2 on living Neuro2a cells (confocal microscopy, Rav titration). As to the method:
as §1, §2, §3

Assay [3] deals with Kv1.1 channel (K-Kv1.1). Conditions: cited from earlier work. As to the method:
(§4) Previously, labeling of HgTx1 with fluorophores Cy3, Cy5, Alexa 488, Alexa 546, Alexa 594, Alexa 660, and Alexa 680 was performed at the cysteine residue introduced instead of alanine 19 [23].

For a further assay, the target named is T3, Kv1.3 channel (K-Kv1.3) (Homo sapiens, UniProt P22001).
T3 construct: expressed in transfected cells; host or cells: Neuro2a cells; tracer A-HgTx bought from Smartox Biotechnology
The note with it: cited from earlier work. As to the method:
as §4

In assay [4] the target is T4, human Kv1.2 channel (K-Kv1.2) (Homo sapiens, UniProt P16389, S371T).
T4 construct: expressed in transfected cells; host or cells: mouse neuroblastoma Neuro2a cells, transient transfection with pmKate2-KCNA2m1; tracer HgTx-G made in E. coli Rosetta-gami(DE3)pLysS
Kind of assay: Competitive displacement of HgTx-G from complexes with K-Kv1.2 on Neuro2a cells. The note with it: displacement of HgTx-G (0.5 nM), 90-120 min, Cheng-Prusoff, triplicate, mean ± SD, read-out: apparent dissociation constant (Kap), Kv1.2. It counts as binding. As to the method: as §1
Quantitative analysis of the interaction of fluorescent ligands with Kv1.2 was carried out using Image J software (version 1.48, National Institute of Health, Bethesda, MD, USA) as described earlier. This analysis was based on calculating the ratio of the fluorescent intensities of the bound ligand to the channel (Ri) in each selected region of interest on the plasma membrane for the confocal images of 20–25 measured cells, followed by calculating the average value (Rav) and standard deviation.
The peptide concentration (DC50) displacing 50% of the fluorescent ligand from the complex with Kv1.2 was estimated by the dependence of Rav on the concentration (C) of the added peptide at the fixed concentration of the fluorescent ligand:Rav(C)/Rav0 = 1/(1 + C/DC50)(2) […]
The apparent dissociation constant (Kap) of the complex between Kv1.2 and the studied peptide was calculated using the Cheng–Prusoff equation:Kap = DC50/(1 + L/Kd)(3) […]

The target of assay [5] is Kv1.1 channel (K-Kv1.1). The note with it: similar analytical system, read-out: Kap, Kv1.1; cited from earlier work. An excerpt: Table 2 Sequences of Ce1, Ce4, HgTx1, and MgTx peptides and dissociation constants (Kap, nM) of their complexes with Kv1.2, Kv1.1, and Kv1.3 channels. | column: Kap, nM
A further assay relates to Kv1.2 channels. Conditions: mammalian cells with depolarized membranes; read-out: 50% inhibition of the Rb+ flux through Kv1.2; cited from earlier work. An excerpt: (§5) Kap of MgTx in our experiments is consistent with the last value.
The test system of the next assay is human Kv1.2 channels. The note with it: patch-clamp, mammalian cells; read-out: 50% decrease of current, human Kv1.2; cited from earlier work.
Description: as §5
(In general: Patch clamp records ionic current or voltage across a cell membrane.)

T2 sequence (P16389 whole entry S371T/N469L): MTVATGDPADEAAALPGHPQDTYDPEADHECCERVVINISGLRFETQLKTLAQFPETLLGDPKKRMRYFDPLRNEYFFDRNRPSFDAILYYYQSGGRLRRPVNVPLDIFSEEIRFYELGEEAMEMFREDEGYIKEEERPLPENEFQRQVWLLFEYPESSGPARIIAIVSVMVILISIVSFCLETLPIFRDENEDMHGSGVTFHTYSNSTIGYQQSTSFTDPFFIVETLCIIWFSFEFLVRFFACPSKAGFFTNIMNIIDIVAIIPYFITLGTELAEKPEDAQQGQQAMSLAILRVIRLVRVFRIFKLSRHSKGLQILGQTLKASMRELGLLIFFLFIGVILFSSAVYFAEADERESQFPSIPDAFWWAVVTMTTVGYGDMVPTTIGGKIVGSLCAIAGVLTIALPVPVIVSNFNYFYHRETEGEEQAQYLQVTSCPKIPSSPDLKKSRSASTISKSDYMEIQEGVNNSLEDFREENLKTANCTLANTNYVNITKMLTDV
T3 sequence (P22001 whole entry): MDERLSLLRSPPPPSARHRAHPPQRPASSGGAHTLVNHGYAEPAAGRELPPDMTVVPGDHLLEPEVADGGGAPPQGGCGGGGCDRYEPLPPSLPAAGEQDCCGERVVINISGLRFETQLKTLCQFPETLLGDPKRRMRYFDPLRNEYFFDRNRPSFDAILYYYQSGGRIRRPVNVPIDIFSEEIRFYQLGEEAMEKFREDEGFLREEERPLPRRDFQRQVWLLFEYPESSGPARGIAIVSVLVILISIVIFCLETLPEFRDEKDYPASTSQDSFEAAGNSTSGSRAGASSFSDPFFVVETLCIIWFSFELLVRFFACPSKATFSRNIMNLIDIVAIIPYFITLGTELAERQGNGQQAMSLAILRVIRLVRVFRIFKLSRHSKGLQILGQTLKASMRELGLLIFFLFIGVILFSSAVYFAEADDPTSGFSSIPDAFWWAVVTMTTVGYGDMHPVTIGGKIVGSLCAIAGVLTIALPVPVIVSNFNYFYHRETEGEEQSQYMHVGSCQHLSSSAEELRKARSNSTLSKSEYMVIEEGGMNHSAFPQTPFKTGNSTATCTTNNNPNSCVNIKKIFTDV
T4 sequence (P16389 whole entry S371T): as the sequence (P16389 whole entry S371T/N469L) above, with L469N counted along it
T1 sequence (P16389 whole entry S371T): as the sequence (P16389 whole entry S371T/N469L) above, with L469N counted along it

Turning to `CC[C@H](C)[C@@H]1NC(=O)CNC(=O)[C@H](Cc2ccccc2)NC(=O)[C@H](CCC(N)=O)NC(=O)[C@H](C)NC(=O)[C@H](CCCCN)NC(=O)[C@@H]2CSSC[C@@H](C(=O)N[C@@H](Cc3ccc(O)cc3)C(=O)N3CCC[C@H]3C(=O)N[C@@H](Cc3c[nH]cn3)C(=O)O)NC(=O)[C@H](CCCCN)NC(=O)[C@@H]3CSSC[C@H](NC(=O)[C@H](CCC(N)=O)NC(=O)[C@H](CCCCN)NC(=O)[C@@H]4CCCN4C(=O)[C@H](CO)NC(=O)[C@H]([C@@H](C)O)NC(=O)[C@@H](NC(=O)[C@H](CCCCN)NC(=O)[C@@H](NC(=O)[C@H](CC(=O)O)NC(=O)[C@@H](NC(=O)[C@@H](NC(=O)[C@@H](NC(=O)CCCN(C)C(=O)c4ccccc4-c4c5ccc(=N)c(S(=O)(=O)O)c-5oc5c(S(=O)(=O)O)c(N)ccc45)[C@@H](C)O)C(C)C)[C@@H](C)CC)C(C)C)CSSC[C@H](NC(=O)[C@H](CCCCN)NC(=O)[C@H](C)NC(=O)CNC(=O)[C@H](C)NC(=O)[C@H](CCCNC(=N)N)NC1=O)C(=O)N[C@@H](CCSC)C(=O)N[C@@H](CC(N)=O)C(=O)NCC(=O)N[C@@H](CCCCN)C(=O)N3)C(=O)N[C@@H](CC(C)C)C(=O)N1CCC[C@H]1C(=O)N1CCC[C@H]1C(=O)N2` [A-HgTx] (X1-[NMeGABA]TVIDVKCTSPKQCLPPCKAQFGIRAGAKCMNGKCKCYPH-OH; disulfide 8-30, 14-35, 18-37; C-terminus assumed), the “binding saturation concentration, K-Kv1.2” value in assay [1] was ~ 0.5 nM. In addition, in assay [2] (concentration dependence of binding, Neuro2a cells), the “binding saturation concentration, K-Kv1.2m2” value is reported as ~ 0.5 nM. The Kd is 80 ± 20 pM in assay [2] (living Neuro2a cells, complete medium, confocal microscopy, triplicate, mean ± SD, SD, read-out: dissociation constant (Kd) of the complex with K-Kv1.2m2); 700 ± 200 pM on Kv1.1 channel (K-Kv1.1) [3]; 300 ± 130 pM on Kv1.3 channel (K-Kv1.3).
On to `CC[C@H](C)[C@@H]1NC(=O)[C@@H]2CSSC[C@@H]3NC(=O)[C@H](CCCCN)NC(=O)[C@H](CCCNC(=N)N)NC(=O)[C@H](CC(N)=O)NC(=O)[C@H](CCSC)NC(=O)[C@H](CSSC[C@H](NC(=O)[C@H](CO)NC(=O)[C@@H](NC(=O)[C@H](CC(N)=O)NC(=O)[C@@H](NC(=O)[C@@H]4CCCN4C(=O)[C@@H](NC(=O)CN)C(C)C)[C@@H](C)CC)C(C)C)C(=O)N[C@@H]([C@@H](C)O)C(=O)NCC(=O)N[C@@H](CO)C(=O)N4CCC[C@H]4C(=O)N[C@@H](CCC(N)=O)C(=O)N2)NC(=O)[C@H](CCCCN)NC(=O)CNC(=O)[C@H](Cc2ccccc2)NC(=O)[C@H](CCCNC(=N)N)NC(=O)[C@H](CCSC)NC(=O)CNC(=O)[C@H](C)NC(=O)[C@H](CC(=O)O)NC(=O)[C@H](CCCCN)NC(=O)[C@H](CSSC[C@@H](C(=O)N[C@H](C(=O)N2CCC[C@H]2C(=O)N[C@@H](CCCCN)C(=O)O)[C@@H](C)O)NC(=O)[C@H](Cc2c[nH]cn2)NC3=O)NC(=O)[C@@H]2CCCN2C(=O)[C@H](CCCCN)NC1=O` [AgTx2], for which, in assay [4], the Kd is 21500 ± 1200 pM.
In the case of `CC[C@H](C)[C@H](NC(=O)[C@@H](N)[C@@H](C)O)C(=O)N[C@H](C(=O)N[C@@H](CC(N)=O)C(=O)N[C@H](C(=O)N[C@@H](CCCCN)C(=O)N[C@H]1CSSC[C@@H]2NC(=O)[C@H](CCCCN)NC(=O)[C@H](C)NC(=O)CNC(=O)[C@H](C)NC(=O)[C@H](CO)NC(=O)[C@H](CCC(N)=O)NC(=O)CNC(=O)[C@H](Cc3ccccc3)NC(=O)[C@H](CCC(N)=O)NC(=O)[C@H](C)NC(=O)[C@H](CCCCN)NC(=O)[C@@H]3CSSC[C@@H](C(=O)N[C@@H](Cc4ccc(O)cc4)C(=O)N4CCC[C@H]4C(=O)N[C@@H](Cc4c[nH]cn4)C(=O)O)NC(=O)[C@H](CCCCN)NC(=O)[C@H](CSSC[C@H](NC(=O)[C@H](CCC(N)=O)NC(=O)[C@H](CCCCN)NC(=O)[C@@H]4CCCN4C(=O)[C@H](CO)NC(=O)[C@H]([C@@H](C)O)NC1=O)C(=O)N[C@@H](CC(C)C)C(=O)N1CCC[C@H]1C(=O)N1CCC[C@H]1C(=O)N3)NC(=O)[C@H](CCCCN)NC(=O)CNC(=O)[C@H](CC(N)=O)NC(=O)[C@H](CCSC)NC2=O)C(C)C)[C@@H](C)CC` [MgTx, margatoxin] (H-TIINVKCTSPKQCLPPCKAQFGQSAGAKCMNGKCKCYPH-OH; disulfide 7-29, 13-34, 17-36 (inferred); N-terminus and C-terminus assumed), on Kv1.1 channel (K-Kv1.1) [5], the Kd was 300 ± 200 pM. For the same compound, the IC50 is 675 pM with Kv1.2 channels and 6 pM in the assay with human Kv1.2 channels.
